“Also recorded” adds a separate entry of the source. Values belong to the compound of their own block, whether it stands above or below them.
Key:
[1] = GSH consumption assay (LC/MS); conditions: for covalent bond formation with GSH: assay conditions or temperatures up to 37 °C for 24 h; for reactivity towards GSH relative to chloroacetamide (1a): 5 mM GSH, 200 μM electrophile, pH 8, 14 °C
BTK [2] = target: T1, BTK (Homo sapiens, UniProt Q06187); test: In vitro kinase activity assay (Nanosyn); conditions: for BTK inhibition (in words): 0.5 nM BTK, 5 μM ATP
Target sequence in this assay (Q06187 whole entry): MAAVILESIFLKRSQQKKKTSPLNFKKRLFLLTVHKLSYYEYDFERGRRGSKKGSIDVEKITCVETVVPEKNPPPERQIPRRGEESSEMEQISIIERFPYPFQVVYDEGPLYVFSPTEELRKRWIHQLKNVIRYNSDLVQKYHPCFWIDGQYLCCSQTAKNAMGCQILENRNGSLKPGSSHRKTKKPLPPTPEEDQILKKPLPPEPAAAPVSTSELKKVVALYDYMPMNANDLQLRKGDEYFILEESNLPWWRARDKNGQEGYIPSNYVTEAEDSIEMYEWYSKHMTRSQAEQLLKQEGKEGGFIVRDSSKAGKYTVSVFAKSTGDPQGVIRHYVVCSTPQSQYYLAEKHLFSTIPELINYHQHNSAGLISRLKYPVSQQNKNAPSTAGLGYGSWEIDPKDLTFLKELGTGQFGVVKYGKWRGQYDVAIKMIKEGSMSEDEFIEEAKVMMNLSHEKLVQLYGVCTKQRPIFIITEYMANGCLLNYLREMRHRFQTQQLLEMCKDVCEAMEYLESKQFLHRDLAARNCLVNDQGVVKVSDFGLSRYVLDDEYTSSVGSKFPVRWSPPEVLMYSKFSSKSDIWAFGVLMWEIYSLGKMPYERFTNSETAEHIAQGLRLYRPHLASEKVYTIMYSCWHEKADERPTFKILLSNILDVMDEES

BTK [3] = target: T1, BTK; test: BTK activity (autophosphorylation) in Mino cells, Western blot; format: cell-based; parameters: endogenous in cells; host or cells: Mino cells
Procedure: To assess the cellular efficacy of these compounds, we followed the inhibition of BTK autophosphorylation in Mino cells. After 1 h of pre-incubation with the inhibitors and B-cell activation with an anti-IgM antibody, BTK autophosphorylation was followed by Western blot.
The cell pellets were subjected to immunoblotting, and Western blots were performed for p-BTK, BTK, and β-actin.
Cell pellets were washed with ice-cold PBS and lysed using RIPA buffer (Sigma, R0278). […] Samples containing 50 μg total protein were prepared with 4× LDS sample buffer (NuPAGE, Thermo Scientific, NP0007) and 20 mM DTT, which were then resolved on a 4–20% Bis–Tris gel (GeneScript SurePAGE, M00657). […] An EZ-ECL Kit (Biological Industries, 20-500-1000) was used to detect HRP activity.
Target sequence in this assay (Q06187 whole entry): as above

BTK [4] = target: T1, BTK; test: Intact protein mass spectrometry labeling of recombinant BTK; format: binding; parameters: BTK kinase domain was expressed and purified as previously reported; made in house; conditions: 2 μM BTK, 2 μM compound, pH 8, 25 °C
Procedure: BTK kinase domain was expressed and purified as previously reported.[66] Binding experiments were performed in Tris 20 mM (pH 8.0) and 50 mM NaCl at room temperature.
(§1) The reaction mixtures, at room temperature for various times, were injected into the LC/MS. For data analysis, the raw spectra were deconvoluted using a 20,000:40,000 Da (For Pin1, 10,000:30,000) window and 1 Da resolution. The labeling percentage for a compound was determined as the labeling of a specific compound (alone or together with other compounds) divided by the overall detected protein species.
Target sequence in this assay (Q06187 402-655 limits assumed): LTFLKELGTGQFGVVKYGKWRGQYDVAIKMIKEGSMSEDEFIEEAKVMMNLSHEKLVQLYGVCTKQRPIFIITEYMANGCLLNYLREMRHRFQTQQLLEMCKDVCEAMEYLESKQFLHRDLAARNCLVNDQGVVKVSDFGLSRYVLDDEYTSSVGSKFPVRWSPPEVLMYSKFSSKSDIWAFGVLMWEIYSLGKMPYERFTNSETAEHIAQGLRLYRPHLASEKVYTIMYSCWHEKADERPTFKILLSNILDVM

[5] = DTNB thiol reactivity assay; format: physicochemical
Procedure: The compound 5,5′-dithio-bis(2-nitrobenzoic acid) (DTNB; 50 μM) was incubated with 200 μM tris(2-carboxyethyl)phosphine (TCEP) in 20 mM sodium phosphate buffer (pH 7.4) and 150 mM NaCl for 5 min at room temperature to obtain TNB^–2. […] UV absorbance was acquired every 15 min for 7 h. The assay was performed in a 384-well plate using a Tecan Spark 10 M plate reader. […] Compounds were measured in triplicate. The data were fitted to a second-order reaction equation such that the rate constant (K) is the slope of ln([A][B0]/[B][A0]), where [A0] and [B0] are the initial concentrations of the compound (200 μM) and TNB^–2 (100 μM), respectively, and [A] and [B] are the remaining concentrations as a function of time as deduced from spectrometric measurements. Linear regression using Prism was performed to fit the rate against the first 7 h of measurements.

Pin1 = target: T2, Pin1 (Homo sapiens, UniProt Q13526); test: Intact protein MS labeling of Pin1; format: binding; conditions: 2 μM Pin1, 2 μM compound, pH 7.5, 1 h, 25 °C
T2 construct: The catalytic domain of Pin1 (2 μM) in […] and 75 mM NaCl (pH 7.5) was incubated; made in house
T2 sequence (Q13526 52-163 limits assumed): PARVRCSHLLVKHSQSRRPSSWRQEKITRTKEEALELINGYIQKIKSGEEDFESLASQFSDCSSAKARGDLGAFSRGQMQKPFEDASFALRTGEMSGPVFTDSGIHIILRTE
Procedure: Initially, we incubated these compounds (4a–4g; 2 μM) with Pin1 (2 μM; 50 mM Tris buffer; pH 7.5, 1 h; 25 °C) to check covalent labeling by intact protein MS (Figure 5B,C; Figure S23). Under these conditions, sulfopin labeled 59% as previously reported;[38] the sulfonate (4a) labeled 18%, whereas alkyl sulfamates (4b and 4c) labeled 16 and 56%, respectively. […] We have previously reported that replacing the tert-butyl group in sulfopin by a cyclohexyl increases the labeling along with intrinsic thiol reactivity. Compound 4g contains a cyclohexyl group instead of the tert-butyl and a phenyl sulfamate electrophile and was able to label >95% of Pin1 under these conditions.
Pin1 was expressed and purified as previously reported.[38] The catalytic domain of Pin1 (2 μM) in […] and 75 mM NaCl (pH 7.5) was incubated with 2 μM sulfopin sulfamate (4a–4g) for 1 h at 25 °C.
as §1

[6] = Glutamic acid reactivity of model compounds (LC/MS); conditions: pH 8, 37 °C; 4 days
Buffer stability assay = format: physicochemical
[7] = Metabolic stability of sulfopin analogues in liver microsomes; format: in vitro ADME
Procedure: Next, we examined the buffer stability of the sulfopin sulfamate acetamides in PBS buffer (pH 8; 37 °C). Similar to the model compounds, the chloroacetamide (sulfopin) and sulfonate (4a) warheads show 30 and 15% hydrolysis after 2 days, respectively (Figure S26).
Figure S27: Sulfopin sulfamates show high metabolic stability: Compounds (Sulfopin, 4d, and 4g) were incubated
in liver microsomes and injected to LC/MS/MS at indicated time points. The peak intensities of the compounds were […]

Structure (SMILES): CS(=O)(=O)CC(=O)NCc1ccccc1 [1i]
- covalent bond formation with GSH [1]: did not form a covalent bond with GSH

Structure (SMILES): CS(=O)(=O)OCC(=O)N1CCC[C@@H](n2nc(-c3ccc(Oc4ccccc4)cc3)c3c(N)ncnc32)C1 [3b]
- BTK inhibition (in words) (BTK [2]): potent BTK inhibition
- IC50 (BTK [3]; anti-IgM activation, Western blot normalized to β-actin): 6 nM
- labeling of BTK (BTK [4]; within 10 min): more than 95%

Structure (SMILES): Nc1ncnc2c1c(-c1ccc(Oc3ccccc3)cc1)nn2[C@@H]1CCCN(C(=O)CS(=O)(=O)c2ccccc2)C1 [3g]
- IC50 (BTK [2]): 500 nM
- covalent reaction with BTK (BTK [4]): no labeling; also recorded: failed to react covalently with BTK

Structure (SMILES): Nc1ncnc2c1c(-c1ccc(Oc3ccccc3)cc1)nn2[C@@H]1CCCN(C(=O)COS(=O)(=O)Nc2ccccc2)C1 [3e]
- IC50 (BTK [2]): 100 nM

Structure (SMILES): O=C(COS(=O)(=O)NCc1ccccc1)NCc1ccccc1 [1e]
- reactivity towards GSH relative to chloroacetamide (1a) [1]: an order of magnitude less reactivity
- reaction with glutamic acid [6]: did not react

Structure (SMILES): Nc1ncnc2c1c(-c1ccc(Oc3ccccc3)cc1)nn2[C@@H]1CCCN(C(=O)CCl)C1 [3a]
- BTK inhibition (in words) (BTK [2]): potent BTK inhibition
- less potency in cellular pBTK inhibition (BTK [3]): 20 fold

Structure (SMILES): CNS(=O)(=O)OCC(=O)NCc1ccccc1 [1d]
- reactivity towards GSH relative to chloroacetamide (1a) [1]: an order of magnitude less reactivity
- reaction with glutamic acid [6]: did not react

Structure (SMILES): CS(=O)(=O)CC(=O)N1CCC[C@@H](n2nc(-c3ccc(Oc4ccccc4)cc3)c3c(N)ncnc32)C1 [3f]
- covalent reaction with BTK (BTK [4]): no labeling; also recorded: failed to react covalently with BTK

Structure (SMILES): O=C(CS(=O)(=O)c1ccccc1)NCc1ccccc1 [1j]
- covalent bond formation with GSH [1]: did not form a covalent bond with GSH

Now from value to compound:

- thiol reactivity compared to sulfopin [5]: lower thiol reactivity than sulfopin
- labeling of Pin1 (Pin1): 56%
Structure (SMILES): CC(C)(C)CN(C(=O)COS(=O)(=O)NCc1ccccc1)C1CCS(=O)(=O)C1 (stereo not drawn) [4c]

- labeling of Pin1 (Pin1): less than 30%
Structure (SMILES): Cc1ccc(NS(=O)(=O)OCC(=O)N(CC(C)(C)C)C2CCS(=O)(=O)C2)cc1 (stereo not drawn) [4f]

- hydrolysis (buffer stability, sulfopin analogues) (Buffer stability assay; 200 μM, PBS buffer pH 8, 37 °C for four days): 15%
- hydrolysis (buffer stability, sulfopin analogues) (Buffer stability assay; PBS buffer pH 8, 37 °C, after 2 days): 15%
- labeling of Pin1 (Pin1): 18%
Structure (SMILES): CC(C)(C)CN(C(=O)COS(C)(=O)=O)C1CCS(=O)(=O)C1 (stereo not drawn) [4a]

- thiol reactivity compared to sulfopin [5]: slightly higher reactivity
- labeling of Pin1 (Pin1): > 95%
- metabolic stability (in words) [7]: good metabolic stability
Structure (SMILES): O=C(COS(=O)(=O)Nc1ccccc1)N(CC1CCCCC1)C1CCS(=O)(=O)C1 (stereo not drawn) [4g]

- thiol reactivity compared to sulfopin [5]: lower thiol reactivity than sulfopin
- labeling of Pin1 (Pin1): > 90%
Structure (SMILES): CC(C)(C)CN(C(=O)COS(=O)(=O)Nc1ccc(Br)cc1)C1CCS(=O)(=O)C1 (stereo not drawn) [4e]

- labeling of Pin1 (Pin1): 16%
Structure (SMILES): CNS(=O)(=O)OCC(=O)N(CC(C)(C)C)C1CCS(=O)(=O)C1 (stereo not drawn) [4b]
